This note sets out measurements from US20070155764A1, “NOVEL SUBSTITUTED PYRIMIDINYLOXY UREAS USEFUL AS INHIBITORS OF PROTEIN KINASES” (KALYPSYS, INC., priority 2005, published 2007).

Holding throughout (assay type): biochemical
Experiment [1] addresses T1, human B-Raf protein kinase (Homo sapiens, UniProt P15056).
T1 construct: GST (N); purchased Upstate Inc. 14-530 (B-Raf); 14-420 (Mek1)
Briefly: In vitro B-Raf/Mek1 composite kinase assay. Particulars: recombinant GST-tagged human B-Raf (Δ1-415) with inactive Mek1, 2 μM ATP. As to the method:
In Vitro B-Raf/Mek1 Composite Kinase Assay
2.5 μl of B-Raf kinase buffer (20 mM MOPS [pH 7.2], 25 mM sodium glycerophosphate, 2 mM EGTA [pH 8.0], 1 mM sodium orthovanadate, 1 mM dithiothreitol, 10 mM MgCl2, 0.03% Brij-35, 0.3 mg/ml bovine serum albumin) containing 1 ng of recombinant, N-terminal GST-tagged human B-Raf protein kinase (Δ1-415, Upstate Inc., cat. #14-530) is dispensed to wells of a 1536 multi-well white solid plate. 60 nl of 100× concentration of test compound in DMSO is dispensed to the well by passive pin transfer and incubated for 15 minutes at room temperature (approx. 22° C.). […] The assay plates are sealed and maintained in a humidified environment. After 2 hours, 2.5 μl of PKLight protein kinase assay reagent (Cambrex, cat. #LT07-501) is dispensed. After an additional 5 minute incubation at room temperature, luminescence activity is measured on a Molecular Devices Analyst multi-mode plate reader or other suitable plate reader. Kinase inhibition results in less ATP depletion, and therefore increased luminescence signal. Negative control activity is measured with DMSO lacking any test compound. The positive control is [N-(3-trifluoromethyl-4-chlorophenyl)-N′-(4-(2-methylcarbamoyl-pyridin-4-yl)oxyphenyl)urea], aka Bay 43-9006. Efficacy is measured as a percentage of positive control activity.

The target of the next experiment is T2, VEGFR2 kinase (Homo sapiens, UniProt P35968).
T2 construct: purchased Invitrogen Inc PV3660
As to the kind of experiment: In vitro VEGFR2 kinase assay. Particulars: ADP Quest assay, poly Glu:Tyr substrate, 60 μM ATP. As to the method: (§1) In vitro vegfr2 and PDGFRβ Kinase Assays
(§2) 2.5 μl of ADP Quest assay buffer (DiscoverX Inc., cat. #90-0071) containing 20 ng VEGFR2 kinase (Invitrogen Inc, cat. #PV3660) or 25 ng PDGFRβ kinase (Invitrogen Inc., cat. #P3082) is dispensed to wells of a 1536 multi-well, black solid plate. 60 nl of 100× concentration of test compound in DMSO is dispensed to the well by passive pin transfer and incubated for 10 minutes at room temperature (approx. 22° C.). 2.5 μl of ADP Quest assay buffer containing 0.25 μg of poly Glu:Tyr (4:1) substrate peptide (Upstate Inc., cat. #12-440) and 60 μM ATP is then dispensed and the kinase reaction allowed to incubate at 30° C. for 2 hours. The assay plates are sealed and maintained in a humidified environment. After the 2 hour incubation, 2 μl of ADP Quest assay reagent A, followed by 2 μl of assay reagent B, is added. After an additional 30 minute incubation at room temperature, fluorescence intensity is measured on a Molecular Devices Aquest multi-mode plate reader or other suitable plate reader (fluorescence excitation filter: 530/25 [Peak (nm)/FWHM passband (nm)]; dichroic beamsplitter: 561 nm longpass; fluorescence emission filter: 580/10 [Peak (nm)/FWHM passband (nm)]. The assay measures the conversion of a non-fluoresecent molecule to fluorescent resorutin, which correlates with kinase activity. Negative control activity is measured with DMSO lacking any test compound. The positive control is [N-(3-trifluoromethyl-4-chlorophenyl)-N′-(4-(2-methylcarbamoyl-pyridin-4-yl)oxyphenyl)urea], aka Bay 43-9006. Efficacy is measured as a percentage of positive control activity.

The target in the next experiment is T3, PDGFRβ kinase (Homo sapiens, UniProt P09619).
T3 construct: purchased Invitrogen Inc. P3082
Briefly: In vitro PDGFRβ kinase assay. Particulars: ADP Quest assay, poly Glu:Tyr substrate, 60 μM ATP. As to the method: as §1, §2

T3 sequence (P09619 33-1106): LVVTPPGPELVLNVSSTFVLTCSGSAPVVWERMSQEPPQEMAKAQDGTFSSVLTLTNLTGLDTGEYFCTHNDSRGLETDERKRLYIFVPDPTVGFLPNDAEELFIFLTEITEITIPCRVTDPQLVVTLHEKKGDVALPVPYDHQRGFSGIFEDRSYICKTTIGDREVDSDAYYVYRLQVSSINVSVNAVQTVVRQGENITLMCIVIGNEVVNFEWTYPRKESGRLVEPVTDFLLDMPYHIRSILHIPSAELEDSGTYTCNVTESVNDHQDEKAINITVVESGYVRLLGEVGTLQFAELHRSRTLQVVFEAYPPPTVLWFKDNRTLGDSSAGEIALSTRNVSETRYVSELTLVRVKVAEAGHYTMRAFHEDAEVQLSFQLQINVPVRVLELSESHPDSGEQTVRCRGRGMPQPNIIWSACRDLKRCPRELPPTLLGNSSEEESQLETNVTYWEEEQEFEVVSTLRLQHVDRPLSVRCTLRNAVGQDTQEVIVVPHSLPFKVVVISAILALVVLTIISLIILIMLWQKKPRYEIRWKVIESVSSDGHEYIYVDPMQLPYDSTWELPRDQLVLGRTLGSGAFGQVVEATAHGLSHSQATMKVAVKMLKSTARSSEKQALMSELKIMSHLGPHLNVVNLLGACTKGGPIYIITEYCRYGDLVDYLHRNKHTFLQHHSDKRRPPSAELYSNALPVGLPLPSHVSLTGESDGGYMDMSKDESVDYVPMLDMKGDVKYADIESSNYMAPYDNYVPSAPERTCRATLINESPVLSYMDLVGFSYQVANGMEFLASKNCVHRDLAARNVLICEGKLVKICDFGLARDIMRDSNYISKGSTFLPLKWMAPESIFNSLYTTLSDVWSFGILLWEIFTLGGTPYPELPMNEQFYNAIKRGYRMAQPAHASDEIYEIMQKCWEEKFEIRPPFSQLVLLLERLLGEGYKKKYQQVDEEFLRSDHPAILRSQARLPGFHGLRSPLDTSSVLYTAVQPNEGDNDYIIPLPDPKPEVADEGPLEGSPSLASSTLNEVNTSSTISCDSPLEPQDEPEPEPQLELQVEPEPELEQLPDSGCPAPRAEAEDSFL
T2 sequence (P35968 20-1356): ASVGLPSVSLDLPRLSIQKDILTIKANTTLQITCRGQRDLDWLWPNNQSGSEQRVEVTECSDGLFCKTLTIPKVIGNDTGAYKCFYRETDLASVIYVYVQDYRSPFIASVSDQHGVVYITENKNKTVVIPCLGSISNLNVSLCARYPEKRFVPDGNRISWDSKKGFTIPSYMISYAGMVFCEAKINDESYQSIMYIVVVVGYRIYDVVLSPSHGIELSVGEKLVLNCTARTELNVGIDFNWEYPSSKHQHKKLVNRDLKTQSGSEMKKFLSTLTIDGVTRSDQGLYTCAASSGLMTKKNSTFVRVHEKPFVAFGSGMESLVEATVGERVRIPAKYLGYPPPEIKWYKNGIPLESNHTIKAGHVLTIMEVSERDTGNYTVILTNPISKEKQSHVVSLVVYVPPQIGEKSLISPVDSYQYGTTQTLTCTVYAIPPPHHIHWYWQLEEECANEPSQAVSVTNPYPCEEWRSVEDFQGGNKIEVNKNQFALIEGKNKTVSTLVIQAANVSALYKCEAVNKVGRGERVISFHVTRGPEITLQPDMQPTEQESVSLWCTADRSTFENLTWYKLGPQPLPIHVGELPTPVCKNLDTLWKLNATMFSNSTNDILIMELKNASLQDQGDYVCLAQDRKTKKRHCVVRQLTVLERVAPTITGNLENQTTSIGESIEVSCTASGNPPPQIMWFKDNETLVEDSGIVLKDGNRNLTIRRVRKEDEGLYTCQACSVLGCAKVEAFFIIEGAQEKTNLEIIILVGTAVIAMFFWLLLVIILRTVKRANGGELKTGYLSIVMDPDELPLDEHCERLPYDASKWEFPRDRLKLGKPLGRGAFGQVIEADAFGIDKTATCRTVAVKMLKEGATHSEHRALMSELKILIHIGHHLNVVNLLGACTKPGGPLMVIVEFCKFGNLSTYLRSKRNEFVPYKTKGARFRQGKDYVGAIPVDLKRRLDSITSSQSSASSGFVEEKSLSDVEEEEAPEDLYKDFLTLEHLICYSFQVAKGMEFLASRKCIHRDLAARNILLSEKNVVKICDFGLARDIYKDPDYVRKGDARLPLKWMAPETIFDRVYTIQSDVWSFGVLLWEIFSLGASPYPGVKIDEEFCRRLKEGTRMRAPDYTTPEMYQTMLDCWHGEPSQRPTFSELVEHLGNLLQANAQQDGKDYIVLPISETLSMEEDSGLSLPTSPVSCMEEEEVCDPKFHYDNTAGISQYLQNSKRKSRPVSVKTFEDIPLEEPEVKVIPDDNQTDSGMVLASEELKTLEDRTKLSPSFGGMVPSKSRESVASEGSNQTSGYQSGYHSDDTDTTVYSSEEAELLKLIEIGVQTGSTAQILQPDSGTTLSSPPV
T1 sequence (P15056 416-766): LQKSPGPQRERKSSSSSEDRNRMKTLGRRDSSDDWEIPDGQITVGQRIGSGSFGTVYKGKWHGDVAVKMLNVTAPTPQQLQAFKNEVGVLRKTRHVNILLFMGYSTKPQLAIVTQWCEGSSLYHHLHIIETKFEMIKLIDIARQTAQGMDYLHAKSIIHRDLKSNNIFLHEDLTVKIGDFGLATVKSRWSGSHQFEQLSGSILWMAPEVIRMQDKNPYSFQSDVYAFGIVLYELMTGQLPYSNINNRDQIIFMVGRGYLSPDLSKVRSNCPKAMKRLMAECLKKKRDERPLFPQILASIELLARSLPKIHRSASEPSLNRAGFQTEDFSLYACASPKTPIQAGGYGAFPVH

For `O=C(Nc1ccc(Oc2cc(-c3ncn[nH]3)ncn2)cc1)Nc1ccc(Cl)c(C(F)(F)F)c1` [Example 22, 1-(4-(6-(1H-1,2,4-Triazol-5-yl)pyrimidin-4-yloxy)phenyl)-3-(4-chloro-3-(trifluoromethyl)phenyl)urea], the IC50 (in experiment [1]; on VEGFR2 kinase; against PDGFRβ kinase) was not above 10 µM in each case.

On to `Cn1ncnc1-c1cc(Oc2ccc(NC(=O)Nc3ccc(Cl)c(C(F)(F)F)c3)cc2)ncn1` [Example 23, 1-(4-Chloro-3-(trifluoromethyl)phenyl)-3-(4-(6-(1-methyl-1H-1,2,4-triazol-5-yl)pyrimidin-4-yloxy)phenyl)urea], for which the IC50 (in experiment [1]; at VEGFR2 kinase; against PDGFRβ kinase) was not above 10 µM throughout.

Take `CN1CCN(Cc2cc(NC(=O)Nc3cccc(Oc4cc(-c5nnco5)ncn4)c3)cc(C(F)(F)F)c2)CC1` [Example 24, 1-(3-(6-(1,3,4-Oxadiazol-2-yl)pyrimidin-4-yloxy)phenyl)-3-(3-((4-methylpiperazin-1-yl)methyl)-5-(trifluoromethyl)phenyl)urea]: the 50% inhibitory concentration (IC50) (in experiment [1]; on VEGFR2 kinase; against PDGFRβ kinase) was not above 10 µM in each case.

Consider `CCN(CC)Cc1cc(NC(=O)Nc2cccc(Oc3cc(-c4nnco4)ncn3)c2)cc(C(F)(F)F)c1` [Example 25, 1-(3-(6-(1,3,4-Oxadiazol-2-yl)pyrimidin-4-yloxy)phenyl)-3-(3-((diethylamino)methyl)-5-(trifluoromethyl)phenyl)urea], for which the IC50 (in experiment [1]; on VEGFR2 kinase; on PDGFRβ kinase) was not above 10 µM in each case.

Take `O=C(Nc1cccc(Oc2cc(-c3nnco3)ncn2)c1)Nc1cc(C(F)(F)F)c(Cl)cc1OCCN1CCCC1` [Example 26, 1-(3-(6-(1,3,4-Oxadiazol-2-yl)pyrimidin-4-yloxy)phenyl)-3-(4-chloro-2-(2-(pyrrolidin-1-yl)ethoxy)-5-(trifluoromethyl)phenyl)urea]: the IC50 (in experiment [1]; against VEGFR2 kinase; on PDGFRβ kinase) was not above 10 µM in each case.

Turning to `O=C(Nc1cccc(Oc2cc(-c3ccc[nH]3)ncn2)c1)Nc1ccc(Cl)c(C(F)(F)F)c1` [Example 27, 1-(3-(6-(1H-Pyrrol-2-yl)pyrimidin-4-yloxy)phenyl)-3-(4-chloro-3-(trifluoromethyl)phenyl)urea], the IC50 (in experiment [1]; on VEGFR2 kinase; against PDGFRβ kinase) was not above 10 µM throughout.

As to `O=C(Nc1ccc(Oc2cc(-c3ccc[nH]3)ncn2)cc1)Nc1ccc(Cl)c(C(F)(F)F)c1` [Example 28, 1-(4-(6-(1H-Pyrrol-2-yl)pyrimidin-4-yloxy)phenyl)-3-(4-chloro-3-(trifluoromethyl)phenyl)urea], the IC50 (in experiment [1]; against VEGFR2 kinase; on PDGFRβ kinase) was not above 10 µM each time.

With `Cc1nc(C)c(-c2cc(Oc3cccc(NC(=O)Nc4ccc(Cl)c(C(F)(F)F)c4)c3)ncn2)s1` [Example 29, 1-(4-Chloro-3-(trifluoromethyl)phenyl)-3-(3-(6-(2,4-dimethylthiazol-5-yl)pyrimidin-4-yloxy)phenyl)urea], the IC50 (in experiment [1]; against VEGFR2 kinase; against PDGFRβ kinase) was not above 10 µM in each case.

`Cc1nc(C)c(-c2cc(Oc3ccc(NC(=O)Nc4ccc(Cl)c(C(F)(F)F)c4)cc3)ncn2)s1` [Example 30, 1-(4-Chloro-3-(trifluoromethyl)phenyl)-3-(4-(6-(2,4-dimethylthiazol-5-yl)pyrimidin-4-yloxy)phenyl)urea]: the IC50 (as a rule, the concentration that gives 50% inhibition) in experiment [1] was more than 10 µM; on VEGFR2 kinase, not above 10 µM; against PDGFRβ kinase, not above 10 µM.

Turning to `O=C(Nc1ccc(Oc2cc(-c3nnco3)ncn2)cc1)Nc1cc(C(F)(F)F)c(Cl)cc1OCCN1CCCC1` [Example 31, 1-(4-(6-(1,3,4-Oxadiazol-2-yl)pyrimidin-4-yloxy)phenyl)-3-(4-chloro-2-(2-(pyrrolidin-1-yl)ethoxy)-5-(trifluoromethyl)phenyl)urea], the IC50 (in experiment [1]; at VEGFR2 kinase; against PDGFRβ kinase) was not above 10 µM in each case.
